Results taken from paper PMC10033663, “Acute pharmacological profile of 2C-B-Fly-NBOMe in male Wistar rats—pharmacokinetics, effects on behaviour and thermoregulation” (Frontiers in Pharmacology, 2023).
“Also recorded” adds a separate entry of the source. Where two headings read alike, the source gives them in different places.

Assays:
male Wistar rats [1] = assay: Observation of 5-HT2A-related behaviour (head-twitch response, wet dog shakes); details: rat, in vivo
[2] = Pharmacokinetics of 2C-B-Fly-NBOMe in blood serum and brain tissue (LC/MS); type: in vivo, male Wistar rats; details: for k el: read-out: ke (h^-1) elimination rate constant (converted)
Protocol: For the pharmacokinetic study, rats were treated with 1 mg/kg s. c. of 2C-B-Fly-NBOMe and then sacrificed by decapitation after 0.5, 1, 2, 4, 8 and 24 h (n = 8 per time point). Collected blood was left to clot in a refrigerator for 1 h, then centrifuged for 10 min at 1500 g, 10°C, and the separated serum was collected. Whole brains were excised manually using surgical instruments. All serum and brain samples were stored at −20°C until the analysis.
200 μl of blood serum was diluted in a microtube with 200 μl of 1% ammonia solution and homogenized in a Bullet Blender tissue homogenizer (speed 2, time 5 min). Next, 400 μl of ethyl acetate was added by the automatic dispenser and the whole content was homogenized again (speed 3, time 5 min), additional 400 μl of ethyl acetate was added and the sample was homogenized for the last time. The homogenate was centrifuged (10 min, 25°C, 12,000 RPM), 600 μl of the top layer was transferred into a new microtube and 50 μl of 10% formic acid solution was added. After proper shaking, the solution was evaporated in the CentriVap concentrator. The residue was then dissolved in 100 μl of methanol and shaken for 10 min. Prior to the analysis, the solution was diluted 1:1 in deionized water, mixed and centrifuged.
100 µL of 1% ammonium hydroxide solution was added to 200 mg of brain tissue. A mixture was homogenized with 200 mg of zirconium oxide beads in a BulletBlender for 10 min (speed 5). 400 μL of ethyl acetate was added to the mixture and homogenized (BulletBlender, speed 3, time 5 min). Additional 400 µL of ethyl acetate was added to the mixture and homogenized (BulletBlender, speed 3, time 5 min). Samples were centrifuged (10 min, 25°C, 12,000 RPM), 400 µL of supernatant was acidified and completely evaporated (Centrivap Concentrator). The dry residue was reconstituted with 400 µL of methanol. Prior to the analysis, 250 µL of the solution was diluted with 750 µL of water, mixed, and centrifuged (0.2 µm PVDF filter).
The samples were analysed using ultra-high performance liquid chromatography-tandem mass spectrometry instrumentation (1,290 Infinity—6,460 Triple Quadrupole LC/MS Agilent Technologies with AJS electrospray ionization source). A column Kinetex Biphenyl (100 × 2.1 mm, 2.6 µm) with a pre-column was used for a chromatographic separation at 35°C with gradient elution in a system of 5 mM ammonium formate with 0.01% (v/v) formic acid (mobile phase A) and methanol with 0.01% (v/v) formic acid (mobile phase B). The gradient started at 10% B, increased from 10% to 50% B in 0.5 min and from 50% to 100% B in 1.5 min, held for 2 min at 100% B, decreased to 10% B in 0.5 min and held for 2 min at 10% B. Data were acquired in positive electrospray ionization (ESI) mode using a multiple reaction monitoring method, one quantification ion and three confirmation ions were used. 2C-B-Fly-NBOMe was quantified using an external matrix-matched calibration. The limit of quantification was 1 ng/ml (1 ng/g for brain tissue). The matrix-matched calibration was performed in duplicates; real samples were also processed in duplicates.
For the pharmacokinetic data, a one-compartment model with a first-order absorption equation ([Wijnand, 1988]) was fitted using a cubic spline interpolation: Ct=D·ka·F/V/ka−ke×expke·t−exp(−ka·t Where C = 2C-B-Fly-NBOMe concentration, t = time, D = dose, ka = absorption rate constant, F = bioavailability, V = volume of distribution, ke = elimination rate constant.
The half-life of the drug elimination was calculated using Package PKNCA version 0.9.4 implemented in R software ([Buckeridge et al., 2015]).

male Wistar rats [3] = assay: Open field test (OFT); type: in vivo
Protocol: OFT was performed in a black square plastic arena (80 × 80 × 40 cm) in an evenly lit and sound-proof testing room. Rats were individually placed into the centre and allowed to explore the arena for 30 min while their behaviour was recorded. The experimental arena was cleaned with 70% ethanol after each subject. Arena was virtually divided into a 5 × 5 grid of identical squares; 16 squares were located next to the walls (peripheral zone) and 9 squares were in the centre (central zone). Software EthoVision XT 14.0 software (Noldus, Netherlands) was used to capture raw data used in the calculation of the following dependent variables: trajectory length (cm; corrected for deviations of <3 cm) and its temporal dynamics in 5 min intervals; thigmotaxis (∑fperipheral zones/∑fall zones, f = frequency of appearance in the zone) reflecting the probability of appearance in the peripheral zone; Tcenter reflecting time spent in the centre of the arena (∑timecentral zones).
Locomotor activity in OFT (mean trajectory length across 5 min blocks) was evaluated using a 2 × 4 × 6 mixed factorial ANOVA with temporal testing onset (15 or 60 min) and drug treatment (2C-B-Fly-NBOMe 0.2, 1, or 5 mg/kg or ctrl) as between-subjects factors, and time blocks (6 × 5 min intervals) as a within-subjects factor. Spatial distribution of animal movement in OFT (thigmotaxis and T center) and PPI parameters (habituation, ASR and % of PPI) were each analysed using a 2 × 4 factorial ANOVA with temporal testing onset (15 or 60 min) and drug treatment (2C-B-Fly-NBOMe 0.2, 1, or 5 mg/kg or ctrl) as between-subjects factors.

[4] = ref Richter et al. (2020); cited from earlier work
[5] = brain, 1 mg/kg s. c., mean ± SEM
[6] = male, Wistar, rat, sc, brain, 1 mg/kg s. c., mean ± SEM
[7] = male, Wistar, rat, sc, serum, 1 mg/kg s. c., mean ± SEM
[8] = serum, 1 mg/kg s. c., mean ± SEM
[9] = 0.2, 1 and 5 mg/kg s. c., 15 and 60 min onset

## COc1ccccc1CNCCc1c2c(c(Br)c3c1OCC3)OCC2 [2C-B-Fly-NBOMe]
Male Wistar rats [1]
  behaviour typical of 5-HT2A receptor activation (head-twitch response or wet dog shakes): did not demonstrate any behaviour
[2]; blood serum, 1 mg/kg s. c.
  Maximum mean concentration: 28 ng/mL
  Time of maximum mean concentration: ≤ 0.5 h
[2]; brain tissue, 1 mg/kg s. c.
  Time of peak drug concentration: 60 min
[2]; brain versus serum concentration, 1 mg/kg s. c.
  passage through the blood-brain barrier: readily passes through the blood-brain barrier
[2]; [5]
  AUC0-24 h: 826.3 ± 112.6 ng·h/g
  ka (h^-1) absorption rate constant: 0.685 ± 0.034 h⁻¹
[2]; male, Wistar, rat, sc, brain, 1 mg/kg s. c.
  Tmax: 1.1 h
[2]; male, Wistar, rat, sc, brain, 1 mg/kg s. c., Table 1, read-out: t1/2 (converted)
  half-life: 3.2 h
[2]; [6]
  Cmax: 159 ± 15.3 ng/g
  k el: 0.655 h⁻¹
[2]; male, Wistar, rat, sc, serum, 1 mg/kg s. c.
  Tmax: 0.8 h
[2]; male, Wistar, rat, sc, serum, 1 mg/kg s. c., Table 1, read-out: t1/2 (converted)
  half-life: 2.55 h
[2]; [7]
  Cmax: 28.4 ± 6.33 ng/mL
  k el: 0.733 h⁻¹
[2]; male, Wistar, rat, sc, serum, 1 mg/kg s. c., mean ± SEM, one-compartment model, read-out: F (%) bioavailability
  bioavailability: 96.1 ± 4.8%
[2]; male, Wistar, rat, sc, serum, 1 mg/kg s. c., mean ± SEM, read-out: AUC0-24 h
  AUC(0-t): 115 ± 25.6 ng·h/mL
[2]; male, Wistar, rat, subcutaneous, blood serum, 1 mg/kg s. c., read-out: half-life of elimination (converted)
  half-life: 1.56 h
[2]; male, Wistar, rat, subcutaneous, brain, 1 mg/kg s. c., read-out: half-life of elimination (converted)
  half-life: 2.4 h
[2]; male, Wistar, rat, subcutaneous, brain, 8 h after 1 mg/kg s. c.
  concentration at 8 h: 21 ng/g
[2]; serum, 1 mg/kg s. c.
  Time of peak drug concentration: 30 min
[2]; [8]
  V d (mL) volume of distribution: 7.231 ± 0.362 mL
  ka (h^-1) absorption rate constant: 0.731 ± 0.036 h⁻¹
[2]; serum, 8 h after 1 mg/kg s. c.
  presence in serum after 8 h: almost undetectable
Male Wistar rats [3]; [9]
  Tcentre (time spent in the centre of the arena): not affected
  thigmotaxis: not affected
Male Wistar rats [3]; 0.2, 1 and 5 mg/kg s. c., 15 and 60 min testing onset
  total trajectory length (locomotor activity) versus ctrl: dose-dependently reduced; also recorded: significant differences in all remaining groups versus ctrl except for 0.2 mg/kg of 2C-B-Fly-NBOMe in the 60 min onset
Male Wistar rats [3]; 0.2, 1 and 5 mg/kg s. c., both testing onsets
  Locomotor habituation: dose-dependently disturbed
Male Wistar rats [3]; 15 min onset, 1 mg/kg s. c., p < 0.05
  locomotion in 5 min time blocks versus ctrl: persisted until the fourth block
Male Wistar rats [3]; 15 min onset, 5 mg/kg s. c., p < 0.05–0.001
  locomotion in 5 min time blocks versus ctrl: significant hypolocomotion during the whole session
Male Wistar rats [3]; 15 min onset, all the doses (0.2, 1, 5 mg/kg s. c.), p < 0.001
  locomotion in 5 min time blocks versus ctrl: significantly decreased activity in the first three blocks
Male Wistar rats [3]; 60 min onset, 1 mg/kg and 5 mg/kg groups, p < 0.01–0.001
  locomotion in 5 min time blocks versus ctrl: persisted to the fifth block
Male Wistar rats [3]; 60 min onset, all groups (0.2, 1, 5 mg/kg s. c.), p < 0.05–0.001
  locomotion in 5 min time blocks versus ctrl: reduced activity in the first two blocks
[4]
  number of phase I metabolites: five
  number of phase II metabolites: one
